Patent publication US12097190B2, “Therapeutic use of levorotatory β-lactams in hematopoiesis, immuno-oncology therapy, and regulation of lipoprotein and apolipoprotein levels” (Alpha-1 Biologics, LLC, priority 2017, dated 2024)

Tests used:
[1] = test system: U937 Clone 10 cells; test: Receptor polarization, cell migration and SHIV endocytosis in preconditioned cells; format: cell-based, human
Experimental: The procedures for inducing receptor polarization have been described (Bristow et al., 2003).
To examine receptor polarization, microscope slides are prepared by adding serial dilutions of a β-lactams. Cells are added to the microscope slides and incubated for 30 minutes in humidified 5% CO2 at 37° C. Unattached cells are removed by washing, and attached cells are fixed by application of 4% paraformaldehyde after which attached cells are counted by light microscopy and photographed using confocal microscopy
Receptor Polarization: U937 Clone 10 cells were cultured overnight in AIM-V serum-free medium. Cells were pelleted, re-suspended in AIM-V at 2×10^6/ml, and 250 μl (5×10^5 cells) was added to Eppendorf tubes pre-coated to prevent attachment.
Binding and Endocytosis: AT 2 chemically inactivated SHIV preparations, consisting of non-infectious virus with conformationally and functionally intact envelope glycoproteins, were provided by the AIDS Vaccine Program (SAIC Frederick, Frederick, Md.). Cells were pulsed with virus (30 ng p27 or p24 per 10^6 cells) for 2 hr. at 2° C. which allows binding, but prevents endocytosis. Alternatively, cells were pulsed with virus for 2 hr. at 37° C. which allows binding and endocytosis. Following pulsing for 2 hr., cells were mounted on Alcian blue slides for microscopy. The presence of inactivated virus in test cells was detected using dodecameric human CD4+-IgG1 provided by the Laboratory of Immunoregulation, NIAID, NIH. This reagent specifically recognizes conformationally intact HIV 1/SIV envelope gp120. CD4-IgG1 was detected using HRP-conjugated Rb anti-human IgG (Sigma). CD4+ IgG-labeled cells were coupled to Oregon 488 fluorochrome using the tyramide signal amplification system (Life Science Products, Boston, Mass., USA). […] Cells were analyzed using 2 μm scanning from 3B.

[2] = test system: T lymphocytes; test: Effect on T cell numbers in C57BL6 mice, flow cytometry; format: in vivo, mouse; conditions: 5 mg/kg oral gavage, 2 weeks of treatment, change from baseline
Experimental: Compounds were delivered by oral gavage 5 days per week. Blood was collected weekly for detection of CD3e, CD4, and CD8a T cells by flow cytometry using the mouse T lymphocyte subset antibody cocktail with isotype control (BD Biosciences). The study was performed at the Division of Laboratory Animal Research, Stony Brook University, Stony Brook, N.Y. Staining and statistical analysis was performed by Alpha-1 Biologics, and the samples were acquired by the Flow Cytometry Laboratory, Stony Brook Hospital, using a BD LSRFortessa instrument. […] Data were normally distributed and compared using Student's T-test. Mean % Change in CD3+ T cells for vehicle was −11% and for CD4+CD8+ progenitors was −13%. […] Average percent change from baseline is represented in FIGS. 6A and 6B where % change=100×[(Treatment Mean-Baseline)/Baseline].

[3] = test system: E. coli DH5-Alpha; test: Kirby-Bauer Disk Test, zones of inhibition; format: cell-based
Experimental: […] At this concentration of cells, bacteria were spread on Mueller-Hinton agar plates. […] After incubation for 16 hours at 37° C., plates were examined for zones of inhibition.

[4] = test system: LDL; test: Diet-induced obesity (DIO) mouse model, serum LDL levels; format: in vivo; conditions: week 6, normalized to vehicle
Experimental: The well-known Jackson Laboratory (Bar Harbor, Me.) C57BL/6 Diet-Induced Obesity (DIO) mouse model represents human metabolic syndrome and elevated LDL levels. Mice are fed a high fat diet (60% fat) or normal diet (10% fat) for various periods of time and lipoprotein levels were measured. […] In accordance with a protocol used in a recently conducted human clinical trial (NCT01731691), mouse peripheral blood was collected into blood collection tubes, and serum was analyzed for lipoprotein levels using Beckman Coulter AU680 Chemistry System. In addition, cells were analyzed by flow cytometry to quantitate lymphocyte subsets including CD3, CD4, and CD8. As compared to baseline levels (before treatment), lipoprotein levels (including, but not limited to total cholesterol, HDL, LDL, apoA, apoB, apoC, apoE) and blood cells expressing the above mentioned cellular markers were quantitated to determine changes due to treatment. Diet-induced obesity mice (DIO, Jackson Laboratory) were fed a 60% fat diet for 17 weeks. […] Because mice were maintained on the DIO diet throughout the study, body weight and LDL levels increased in the vehicle control (Group 1). To compare the effectiveness of compounds, mean values within each treatment group were normalized by forming a ratio to mean values of vehicle, and the ratio was expressed as normalized % change using to the formula: 100−(Treatment mean/Vehicle mean*100).

[5] = test system: CD4+ T lymphocytes; conditions: cited from earlier work
[6] = test system: transplanted human stem cells, transplanted AML cells; conditions: mouse model; cited from earlier work
[7] = test system: Human acute myeloid leukemia cells (AML); conditions: cited from earlier work
[8] = test system: elastase; conditions: inhibition of elastase activity as described in the package insert; cited from earlier work
[9] = test system: HIV non-permissive (minus) clone 17; test: Adherence assay on coverslips, U937 minus clone 17; format: cell-based, human
Experimental: (§1) To coverslips prepared with chemoattractants as described above, 10^6 cells in 90 μl HBSS were mixed to uniformity, and incubated for 30 min in humidified 5% CO2 at 37° C. without dehydration. To detect interacting effects of stimulants, cells were delivered in an 80 μl volume to coverslips previously prepared with 10 μl of one stimulant, mixed to uniformity, and incubated for 15 min at 37° C. Subsequently, an additional stimulant was delivered in a 10 μl volume to each coverslip, mixed with pre-incubated cells to uniformity, and incubated for 30-60 min at 37° C. […] Slides were examined by epi-illumination UV microscopy on a Zeiss Axioskop Means and standard deviations were determined by counting adherent cells in at least three fields/coverslip.
(§2) Means and standard deviations represent the difference between stimulated and unstimulated adherence. […] Adherence was optimized for each chemoattractant and adherence induced by each chemoattractant was enumerated in more than three separate experiments.

[10] = test system: HIV permissive (plus) clone 10; test: Adherence assay on coverslips, U937 plus clone 10; format: cell-based, human
Experimental: as §1, §2

CC1(C)SC2C(NC(=O)C(N)c3ccccc3)C(=O)N2C1C(=O)O [L-Ampicillin, (2S,5R,6R)-6-((S)-2-amino-2 phenylacetamcido)-3,3-dimethyl-7-oxo-4-thia-1-azabicyclo[3.2.0] heptane-2-acid]
cell motility (morphology by confocal microscopy) [1]: exhibited the morphology of cells undergoing cell motility
receptor polarization [1]: induces receptor polarization
cell migration and endocytosis (SHIV) ([1]; FIGS. 3A and 3B): stimulation of cell migration and endocytosis
Mean % Change in CD3+ T cells [2]: +16%
Mean % Change in CD4+CD8+ progenitors [2]: +38%
activity in the Kirby-Bauer Disk Test ([3]; 0.5 mM): ineffective as an antibiotic
zone of inhibition at 5000 µM ([3]; Escherichia coli, DH5ALPHA, 5 mM, 10 μl per disk, 16 hours at 37° C., read-out: diameter of zone of inhibition): 14 mm
normalized mean % change in LDL ([4]; 5 mg/kg oral gavage 5 days per week): −41.0±20.5%
normalized mean % change in LDL ([4]; 50 mg/kg oral gavage 5 days per week): 3.7%

α1PI: abundant proteinase inhibitor alpha-1 proteinase inhibitor (α1PI, α1 antitrypsin)
CD4+ counts ([5]; HIV-1-infected patients with acquired and uninfected patients with inherited α1PI deficiency): caused an increase in CD4+ counts
LDL in subjects ([5]; α1PI treatment): produced decreased LDL
homing of stem cells to and egress of AML cells from bone marrow [6]: inhibited homing of transplanted human stem cells to bone marrow and egress of transplanted AML cells from bone marrow
SDF-1-induced pseudopodia formation ([7]; AML cells): prevented
SDF-1 dependent migration ([7]; pre-incubation of AML cells): significantly reduced

PROLASTIN-C®: human α1PI, cryoprecipitate preparation isolated from human plasma (Grifols)
specific activity [8]: 70%

Ser-Phe-Leu-Leu-Arg-Asn [SFLLRN]
stimulation of adherence [9]: Neither subclone was influenced
stimulation of adherence [10]: Neither subclone was influenced
